Measured values from the METLIN SMRT retention time set (Domingo-Almenara et al. 2019).

Assay: gradient 5% acetonitrile 3 min, to 50% in 2 min, to 85% in 15 min, held 3 min, 100 µL/min
Details: column: Zorbax Extend-C18 2.1 x 50 mm; eluents: water / acetonitrile, 0.1% formic acid
Method in brief: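 Retention times of pure standards were taken from adduct peaks that were selected by computer and manually inspected. Over 3 months, mixtures of ~100 molecules were run by HPLC–quadrupole time-of-flight mass spectrometry in positive and negative ionization mode. The Zorbax Extend-C18 column (2.1 × 50 mm, 1.8 μm) ran at 100 μL/min in water and acetonitrile, each containing 0.1% formic acid, with 40 μL dead volume and 900 μL dwell volume.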

| RP-LC retention time | Structure (SMILES) |
| --- | --- |
| 725 s | CCOc1ccc(C(=O)N2CCC3(C2)C(=O)Nc2ccccc23)cc1 (stereo not drawn) |
| 932 s | CCC(C(=O)NCCc1c[nH]c2ccccc12)n1nc(C)c2nn(-c3ccccc3)c(C)c2c1=O (stereo not drawn) |
| 785 s | CCC(C)C(NC(=O)Cc1ccc(Cl)cc1)C(=O)Nc1nc2ccccc2[nH]1 (stereo not drawn) |
| 675 s | CCOCC(=O)N1CC(F)(F)C[C@H]1c1nc(COC)no1 |
| 1310 s | Cc1ccc(-c2csc(Cc3nc(-c4ccc(F)cc4)no3)n2)cc1 |
| 857 s | COc1cccc(-c2noc(CSc3nccn3-c3ccccc3)n2)c1OC |
| 937 s | Cn1nc(-c2nc(C3CC3)no2)c2c1CCN(C(=O)c1ccc(OC(F)(F)F)cc1)C2 |
| 559 s | O=C(Nc1nnc(C2=COCCO2)o1)c1ccco1 |
| 926 s | O=C(NC1CCCCCC1)C1CCCN(S(=O)(=O)c2c[nH]c(C(=O)N3CCCCCC3)c2)C1 (stereo not drawn) |
| 755 s | Cc1ccccc1OCC(=O)NC[C@@]12CCC[C@H]1N(C)C(=O)CC2 |
| 612 s | COc1ccc(Cl)cc1Nc1nc(N)nc(CN2CCN(c3ccccn3)CC2)n1 |
| 928 s | CCOc1ccccc1-c1nc(Cn2cnc3onc(C)c3c2=O)c(C)o1 |
| 618 s | Cc1ccc([N+](=O)[O-])cc1S(=O)(=O)N1CCN(c2cccc(Cl)c2)CC1 |
| 1010 s | CCOc1ccc(CC(=O)N2CCCC2c2nc(-c3ccccc3)no2)cc1OCC (stereo not drawn) |
| 876 s | Cc1ccc(S(=O)(=O)NC2CCN(c3ccccc3)C2=O)cc1 (stereo not drawn) |
| 668 s | Cc1cc2nc(C(=O)NCC(C)C)c(=O)n(C)c2cc1C |
| 879 s | COc1cc(NC(=O)c2cnc(-c3ccccc3)nc2-c2ccncc2)cc(OC)c1 |
| 732 s | O=C(c1ccc2c(c1)OCO2)N1CCN(c2cc(-c3cccs3)[nH]n2)CC1 |
| 592 s | Cn1nnnc1SCC(=O)NCCn1nc(-c2ccco2)ccc1=O |
| 737 s | O=C(CC1c2ncccc2C(=O)N1c1ccc(F)cc1)NCc1cc(F)ccc1F (stereo not drawn) |
| 904 s | Cc1cc(C)cc(N2CCC(NC(=O)Nc3ccc(F)cc3F)C2=O)c1 (stereo not drawn) |
| 637 s | COC[C@@H]1CN(S(=O)(=O)c2ccccc2C)C[C@H]1c1ccccn1 |

| RP-LC retention time | Structure (SMILES) |
| --- | --- |
| 920 s | CSc1cccc(NC(=O)Cn2c(=O)n(-c3cccc(C)c3)c(=O)c3c2cc(C)n3C)c1 |
| 726 s | Cc1ccc(NC(=O)NCC2CCOCC2)cc1C |
| 844 s | Fc1ccc(Nc2c(-c3ccccc3)nc3cnccn23)cc1 |
| 1120 s | O=c1c2ccccc2c(-c2nc(-c3cccnc3)no2)cn1-c1ccc(Cl)cc1 |
| 999 s | COc1ccc(NS(=O)(=O)c2c(C)nn(-c3ccc(-c4ccc(C)cc4)nn3)c2C)cc1F |
| 786 s | O=C(CN1CCN(C(=O)Nc2ccc(Br)cc2)CC1=O)NC1CCCCCC1 |
| 918 s | COc1ccc(-c2nc(N(C)C3CCCCC3)c3ccccc3n2)cc1 |
| 843 s | COCCn1cc(C(=O)NC2CCCC2)c2nn(-c3ccccc3)c(=O)c-2c1 |
| 776 s | CCOc1ccccc1NC(=O)C1(C)Oc2cccnc2NC1=O (stereo not drawn) |
| 936 s | Cc1[nH]c2ccc(-c3nnc(SC(C)C(=O)Nc4ccc5c(c4)OCCO5)o3)cc2c1C (stereo not drawn) |
| 800 s | O=C(Nc1cccc(Cl)c1)N1CCC(n2c(-c3ccco3)nc3cccnc32)C1 (stereo not drawn) |
| 589 s | Cc1nnc2cc(N3CCN(Cc4csc5c4CCCC5)CC3)cnn12 |
| 849 s | COc1ccc(NC(=O)Cn2c(Nc3cc(C)cc(C)c3)nc(C)cc2=O)cc1Cl |
| 818 s | Cc1ncsc1CN1CC(Cn2c(C)cnc2-c2ccncc2)C1 |
| 623 s | CCN1C(=O)NC(c2ccc(C)cc2C)C2=C1CN(CCC(=O)N1CCCC1)C2=O (stereo not drawn) |
| 638 s | O=C(Cc1ccc(Br)cc1)N1CCN(C(=O)c2cc(-c3cccnc3)n[nH]2)CC1 |
| 691 s | O=C(CSc1ccc(N2CCCC(C(=O)NC3CC3)C2)nn1)Nc1ccc(Br)cc1 (stereo not drawn) |
| 1310 s | Cc1sc2ncnc(N3CCCC(C)C3)c2c1C(=O)Nc1ccc(Br)cc1 (stereo not drawn) |
| 1220 s | C=CCN1C(=O)COc2ccc(-c3nc(NC(=O)CCC4CCCCC4)sc3C)cc21 |
| 1020 s | O=C(C1CCN(S(=O)(=O)c2ccc(-c3noc(-c4cccc(F)c4)n3)cc2)CC1)N1CCCC1 |
| 814 s | Cc1cccc(-c2nc(-c3ccc(-n4ccnc4)nc3)no2)c1 |
| 1170 s | CC(CCc1ccccc1)NC(=O)c1cc2sc(Cl)cc2n1C (stereo not drawn) |

| RP-LC retention time | Structure (SMILES) |
| --- | --- |
| 957 s | CCc1ccccc1N1C(=O)CN(S(=O)(=O)CC)CC1(C)C(=O)NC1CCCCCC1 (stereo not drawn) |
| 716 s | CCn1cc(CC(=O)NCc2cccc(F)c2)c2cccnc21 |
| 643 s | O=C(CCS(=O)(=O)c1ccccc1)Nc1cc(-c2ccco2)nn1CCO |
| 858 s | O=C(COc1ccc(Cl)cc1Cl)NCC1CCN(C(=O)c2ccccc2F)CC1 |
| 1270 s | CCn1c(C(=O)NC(C)CCc2ccccc2)cc2sc(Cl)cc21 (stereo not drawn) |
| 760 s | CC(C)C(=O)N1CCCCCCN(C)C(=O)[C@@H]2CCC[C@@H]21 |
| 654 s | CCCn1cc(-c2ccncc2)cc1C(=O)Nc1ccc(OC)c(OC)c1 |
| 950 s | COc1ccc(Br)c(C(=O)Nc2ccc3c(c2)N(C(=O)C2CCCC2)CC3)c1 |
| 815 s | CCOc1ccc(NC(=O)Cc2csc3nc(-c4ccccc4)cn23)cc1 |
| 591 s | c1cn(-c2cc(N3CCSCC3)ncn2)cn1 |
| 659 s | O=C(Cn1nc2c(N3CCCCCC3)nccn2c1=O)NCc1ccc2c(c1)OCO2 |
| 954 s | O=C(Nc1cccc(OCc2nnc(-c3ccccc3)o2)c1)c1ccccn1 |
| 960 s | Cc1ccc(C)c(NS(=O)(=O)c2ccc(-c3nnc(C4CCC4)o3)o2)c1 |
| 623 s | Cc1ccc2cccc(Oc3ncnc(N)c3[N+](=O)[O-])c2n1 |
| 1200 s | Cc1ccc(NC(=O)C2CCCN(c3nccnc3Sc3ccc(C)cc3)C2)cc1 (stereo not drawn) |
| 916 s | Cc1ccc(S(=O)(=O)N2C(=O)CCC2C(=O)NC2CCCCC2)cc1C (stereo not drawn) |
| 1020 s | Cc1ccc(C)c(S(=O)(=O)N2CCc3c(c(-c4nnc(-c5ccccc5)o4)nn3C)C2)c1 |
| 872 s | Cc1ccc(CNC(=O)C2CCN(S(=O)(=O)c3cc(C(=O)N4CCCC4)n(C)c3)CC2)cc1 |
| 1120 s | Cc1cc(Br)ccc1NC(=O)C1CCCN(c2nccnc2Oc2ccccc2)C1 (stereo not drawn) |
| 768 s | COc1ccc(CC(=O)N2CCC3(CC2)NC(=O)c2cc(F)ccc2N3C)cc1 |
| 709 s | CCn1cc(-c2ccc(Cl)cc2)cc1C(=O)NCCCN1CCOCC1 |
| 874 s | CCN(CC)C(=O)N1CCC(Oc2ccc(-c3noc(COC)n3)cc2)C1 (stereo not drawn) |

| RP-LC retention time | Structure (SMILES) |
| --- | --- |
| 674 s | CC(C)CC(=O)N1c2nc(-c3ccccc3)nn2C2(CCCCC2)[C@@H]2CCCC[C@@H]21 |
| 907 s | COc1cc(OC)cc(-c2nnc(Cc3nc(-c4ccccc4F)no3)o2)c1 |
| 604 s | CC(NC(=O)c1ccccc1)C(=O)N1CCN(c2cc(C(C)C)n3cnnc3n2)CC1 (stereo not drawn) |
| 1130 s | O=C1CC(/C=C/c2ccccc2)Cc2nc(N3CCN(c4ncccn4)CC3)ncc21 (stereo not drawn) |
| 566 s | Cc1nnc(N2CCCC(C(=O)NCc3ccccn3)C2)c2nn(-c3ccccc3)c(C)c12 (stereo not drawn) |
| 778 s | COc1ccc(C2C(C(=O)OC(C)C)=C(C)NC3=C2C(=O)CCC3)c(OC)c1OC (stereo not drawn) |
| 1130 s | CCCS(=O)(=O)Nc1ccc(F)c(C(=O)c2c[nH]c3ncc(-c4ccc(Cl)cc4)cc23)c1F |
| 878 s | Cc1cccc(N2CCN(C(=O)C3CCN(Cc4cn(C)c5ccc(Cl)cc45)CC3)CC2)c1C |
| 1190 s | CCCCn1cc(S(=O)(=O)N2CCN(c3ccccc3F)CC2)c2cccnc21 |
| 757 s | COc1cc(=O)n2c(c1C(=O)Nc1ccc(Br)cc1C)CCCC2 |
| 735 s | CCC(Sc1nnc2n1CCN2c1ccc(OC)cc1)C(=O)OC (stereo not drawn) |
| 896 s | COc1ccc(OC)c2sc(N3CCN(S(=O)(=O)c4cccs4)CC3)nc12 |
| 597 s | CCCNC(=O)C1CCCN(c2cc(=O)n(C)c(=O)n2C)C1 (stereo not drawn) |
| 774 s | O=C(Cn1cc(S(=O)(=O)Cc2cccc(Cl)c2)c2ccccc21)N1CCOCC1 |
| 765 s | CCn1cc(CN2CCC(C(=O)NCCCc3ccccc3)CC2)c2cc(OC)ccc21 |
| 1020 s | CC(C)c1noc(-c2ccnc(-n3cnc(C(=O)NC4CCCCC4)c3)c2)n1 |
| 956 s | O=C(CCC1CCCN(S(=O)(=O)c2ccccc2)C1)NCC1CCCCC1 (stereo not drawn) |
| 706 s | COc1ccc(CNC(=O)Nc2ccc(CC(=O)NCC(F)(F)F)cc2)cc1 |
| 929 s | CN1C(=O)c2cc(S(=O)(=O)NC3CCCCC3)ccc2Oc2cccnc21 |
| 636 s | COCCNC(=O)c1cc(C)nc2ccc(Br)cc12 |
| 558 s | CCN(CC)CCCNC(=O)CCc1c(-c2ccc(Cl)cc2)nc2ccccn12 |

| Structure (SMILES) | RP-LC retention time |
| --- | --- |
| CC(C)C(=O)N1CCc2c(c(C(=O)N3CCC(C(=O)N4CCC5(CC4)OCCO5)CC3)nn2C)C1 | 626 s |
